# Data published in patent publication US10533032B2, “Crystalline form of benzylbenzene SGLT2 inhibitor” (THERACOS SUB, LLC, priority 2010, dated 2020).
# Several values for one entry are separate records, joined by “and”; a condition that tells them apart may be missing. Equal entries are not always repeated.
# Columns and labels:
# [1] = Hygroscopicity test of crystalline compound 8 powder in desiccators over saturated salt solutions (weight increase, appearance); type: physicochemical; details: for Weight Increase: individual samples 1-3, listed as crystal compound 8
# Protocol: The tendency toward hygroscopicity of crystalline compound 8 in powder form was tested at 75% and 92.5% relative humidity at 25° C. for up to 10 days. Reagents included: (1) water: in house, MilliQ, 18.2MΩ; (2) NaCl: AR grade; (3) KNO3: AR grade; (4) saturated NaC solution with extra NaCl solid for 25 OC/75% RH control; and (5) saturated KNO3 solution with extra KNO3 solid for 25 OC/92.5% RH control. Equipment used included (1) desiccators, 240 mm ID; and (2) weighing bottles with lids: 50 mm ID×30 mm height. The saturated salt solutions and solids were transferred into individual desiccators, and equilibrated at 25° C. at least overnight to reach the desired relative humidity readings. Four weighing bottles were placed into each desiccator, and equilibrated overnight. The empty weighing bottles were weighed and the tare weights recorded (W1). 0.5 g of crystalline compound 8 was added into three weighing bottles in each desiccator to form a thin layer with thickness of 1-2 mm. The sample weight in each bottle (W2) was recorded. One empty weighing bottle was used for blank calibration. The bottles were left in each desiccator with lids open. The lids were closed and each bottle accurately weighed on days 1, 5 and 10 (W3). The bottles were returned to each desiccator with lids open immediately after weighing. The following formula was used to calculate the weight increase: [formula] WB=the weight increase of empty weighing bottle.
# [2] = type: physicochemical
# From the text: The crystalline compound of the present invention is also characterized by the unit cell data substantially in accordance with FIG. 7. Thermal gravimetric analysis (TGA) can also be used to characterize the crystalline compound of the present invention.
# [3] = Hygroscopicity test of crystalline compound 8 powder in desiccators over saturated salt solutions (weight increase, appearance); type: physicochemical; details: for Weight Increase, Average: average of 3 samples; for Weight Increase: individual samples 1-3, listed as crystal compound 8
smiles,measurement,setting,value
"OC[C@H]1O[C@@H](c2ccc(Cl)c(Cc3ccc(OCCOC4CC4)cc3)c2)[C@H](O)[C@@H](O)[C@@H]1O [crystalline compound 8, (2S,3R,4R,5S,6R)-2-(4-chloro-3-(4-(2-cyclopropoxyethoxy)benzyl)phenyl)-6-(hydroxymethyl)tetrahydro-2H-pyran-3,4,5-triol]","Weight Increase, Average","[1]; 25° C./75% RH, 1 day, average of 3 samples",0.2447%
same,Weight Increase,"[1]; 25° C./75% RH, 1 day",0.3291% and 0.235% and 0.1698%
same,Weight Increase,"[1]; 25° C./75% RH, 5 days",0.1051% and 0.1995% and 0.1578%
same,Weight Increase,"[1]; 25° C./75% RH, 10 days",0.3509% and 0.2311% and 0.1957%
same,Appearance,"[1]; 25° C./75% RH, after 5 days",White powder
same,Appearance,"[1]; 25° C./75% RH, after 10 days",White powder
same,hygroscopicity,"[1]; powder form, at the study conditions (75% and 92.5% RH, 25° C., up to 10 days)",low hygroscopicity
same,weight increases,[1]; powder samples at 75% and 92.5% relative humidity at 25° C. for 10 days,below 0.26%
same,thermal stability (TGA),[2],above 200 °C
same,"Weight Increase, Average","[3]; 25° C./75% RH, 5 days",0.1541%
same,"Weight Increase, Average","[3]; 25° C./75% RH, 10 days",0.2593%
same,Appearance,"[3]; 25° C./75% RH, after 1 day",White powder
same,"Weight Increase, Average","[3]; 25° C./92.5% RH, 1 day",0.119%
same,Weight Increase,"[3]; 25° C./92.5% RH, 1 day",0.05362% and 0.1036% and 0.1998%
same,"Weight Increase, Average","[3]; 25° C./92.5% RH, 5 days",0.1627%
same,Weight Increase,"[3]; 25° C./92.5% RH, 5 days",0.0417% and 0.2071% and 0.2394%
same,"Weight Increase, Average","[3]; 25° C./92.5% RH, 10 days",0.2295%
same,Weight Increase,"[3]; 25° C./92.5% RH, 10 days",0.2601% and 0.1633% and 0.2651%
same,Appearance,"[3]; 25° C./92.5% RH, after 1 day",White powder
same,Appearance,"[3]; 25° C./92.5% RH, after 5 days",White powder
same,Appearance,"[3]; 25° C./92.5% RH, after 10 days",White powder
